Measurements taken from patent US9221838B2, “Inhibitors of AKT activity” (ALMAC DISCOVERY LIMITED, priority 2009, dated 2015).
pIC50: −log10 of the molar value.

Tests used:
AKT2 = biological target: T1, AKT2 (Homo sapiens, UniProt P31751); assay: AKT Kinase Assay (IMAP fluorescent polarisation) vs AKT2; format: biochemical
T1 construct: purchased SignalChem
Summary of the method: (§1)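 Phosphorylation of FAM-Crosstide detected by IMAP binding and fluorescence polarisation (485/528 nm), with IC50 fitted from % inhibition versus vehicle. Compound was incubated 45 min with enzyme, then reacted 1 h at room temperature with ATP and peptide in Tris/MgCl2/DTT buffer. Dose response had fourteen half-log points.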

AKT3 = biological target: T2, AKT3 (Homo sapiens, UniProt Q9Y243); assay: AKT Kinase Assay (IMAP fluorescent polarisation) vs AKT3; format: biochemical
T2 construct: purchased SignalChem
Summary of the method: as §1

AKT1 = biological target: T3, AKT1 (Homo sapiens, UniProt P31749); assay: AKT Kinase Assay (IMAP fluorescent polarisation) vs AKT1; format: biochemical
T3 construct: purchased SignalChem
Summary of the method: as §1

[1] = tested on: PC3 and/or LnCaP cell lines; assay: in vitro cell proliferation assay (Cell Titre Glo); format: cell-based; settings: Homo sapiens, read-out: inhibition of proliferation, IC50
Experimental: Testing of the compounds was also performed using in vitro cell proliferation assays:
Cell Titre Glo (Promega) is a highly sensitive homogeneous reagent used to determine the viability of cells. The reagent uses a stable form of luciferase to measure ATP as an output of viability. The luminescent values generated in the assay are directly proportional to the number of viable cells in your assay.
The following materials were used: White, clear bottomed 96 well assay plates (Costar); Cell titre Glo reagents; LnCaP (ECACC) cells grown in RPMI medium (Invitrogen) supplemented with 10 mM HEPES (Invitrogen), 1 mM Sodium pyruvate (Invitrogen), 2 mM L-Glutamine (Invitrogen) and 10% Foetal calf serum (Invitrogen); PC3 (ECACC) cells grown in RPMI medium supplemented with 10% Foetal calf serum (Invitrogen); Trypsin (Invitrogen); PBS (Invitrogen); Biotek Synergy 4 Hybrid Plate reader; 96 well plate shaker (Stuart SSL5); Eppendorf 5414 desk-top centrifuge; Beckman Coulter cell counter Z1 single threshold system.
Prostate cell lines, PC3 and LnCaP, were washed, detached and re-suspended in their respective fresh media. The cells were pelleted by centrifugation (Eppendorf 5414) and spent supernatant discarded. The cells were re-suspended by vortex mixing, counted and seeded into clear bottom white 96 well plates at a density of 5000 cells per well. The cells were incubated (Sanyo) overnight at 37° C. ([…]), and next day treated with increasing concentrations of test compound formulated in fresh medium. The plates were returned to the incubator for 72 hours. […]
The cell viability post compound treatment was determined by the luminescent intensity emitted from the drug treated wells in the plate. In brief, the assay plate was placed in the Biotex Synergy 4 Hybrid plate reader and the luminescence read in each well. The compound treated wells were compared to vehicle treated wells and the % inhibition of cell viability calculated.
The data was analysed using GraphPad Prism, with IC50 values generated using non-linear regression of the data set.

T2 sequence (Q9Y243 whole entry): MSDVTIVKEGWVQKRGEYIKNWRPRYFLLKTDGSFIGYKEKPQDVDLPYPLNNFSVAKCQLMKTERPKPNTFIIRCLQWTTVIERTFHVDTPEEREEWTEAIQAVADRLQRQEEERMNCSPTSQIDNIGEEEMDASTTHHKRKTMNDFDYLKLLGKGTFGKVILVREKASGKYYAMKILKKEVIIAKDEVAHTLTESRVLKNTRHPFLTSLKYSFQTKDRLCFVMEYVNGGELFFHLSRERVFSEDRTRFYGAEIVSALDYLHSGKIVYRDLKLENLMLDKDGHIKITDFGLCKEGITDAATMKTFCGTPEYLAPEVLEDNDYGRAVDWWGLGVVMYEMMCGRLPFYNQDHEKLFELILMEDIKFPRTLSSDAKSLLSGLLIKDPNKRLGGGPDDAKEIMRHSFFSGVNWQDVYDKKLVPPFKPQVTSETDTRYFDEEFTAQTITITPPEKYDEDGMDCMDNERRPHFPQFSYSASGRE
T3 sequence (P31749 whole entry): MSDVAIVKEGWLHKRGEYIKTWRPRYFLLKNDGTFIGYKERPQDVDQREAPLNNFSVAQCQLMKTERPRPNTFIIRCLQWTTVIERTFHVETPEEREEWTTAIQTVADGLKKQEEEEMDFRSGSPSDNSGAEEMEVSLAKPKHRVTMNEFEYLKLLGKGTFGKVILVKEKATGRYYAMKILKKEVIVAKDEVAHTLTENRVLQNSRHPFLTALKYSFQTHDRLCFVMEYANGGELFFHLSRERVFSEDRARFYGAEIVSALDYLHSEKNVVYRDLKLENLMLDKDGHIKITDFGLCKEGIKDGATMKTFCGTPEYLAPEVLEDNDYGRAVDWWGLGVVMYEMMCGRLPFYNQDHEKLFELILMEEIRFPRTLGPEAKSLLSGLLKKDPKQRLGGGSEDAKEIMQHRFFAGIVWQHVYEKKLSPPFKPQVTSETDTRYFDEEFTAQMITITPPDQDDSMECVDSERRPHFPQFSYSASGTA
T1 sequence (P31751 whole entry): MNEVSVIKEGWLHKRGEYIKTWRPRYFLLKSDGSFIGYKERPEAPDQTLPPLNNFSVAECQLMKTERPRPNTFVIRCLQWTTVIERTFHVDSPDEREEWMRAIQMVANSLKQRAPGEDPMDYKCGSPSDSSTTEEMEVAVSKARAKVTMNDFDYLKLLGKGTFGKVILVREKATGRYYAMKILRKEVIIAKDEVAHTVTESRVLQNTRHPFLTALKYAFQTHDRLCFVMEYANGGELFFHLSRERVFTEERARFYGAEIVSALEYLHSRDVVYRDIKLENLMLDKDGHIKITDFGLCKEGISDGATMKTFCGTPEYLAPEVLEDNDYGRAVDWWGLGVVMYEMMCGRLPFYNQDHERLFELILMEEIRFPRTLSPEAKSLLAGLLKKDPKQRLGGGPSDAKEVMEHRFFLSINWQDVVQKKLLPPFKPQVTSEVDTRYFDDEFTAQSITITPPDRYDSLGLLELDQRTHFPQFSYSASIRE

Row | pIC50 (AKT2) | pIC50 (AKT3) | pIC50 (AKT1) | pIC50 [1] | Compound
1 | 6.00 to 7.00 | < 5.00 | 5.00 to 6.00 | > 5.00 | NC1(c2ccc(-c3nc4c(cc3-c3ccccc3)-c3nncn3CC4)cc2)CCC1 [Example 28, 1-(4-(9-phenyl-5,6-dihydro-[1,2,4]triazolo[3,4-f][1,6]naphthyridin-8-yl)phenyl)cyclobutanamine]
2 | 5.00 to 6.00 | < 5.00 | 6.00 to 7.00 |  | CN1C(=O)COc2nc(-c3ccc(C4(N)CCC4)cc3)c(-c3ccc(F)cc3)cc21 [Example 132, 6-(4-(1-aminocyclobutyl)phenyl)-7-(4-fluorophenyl)-1-methyl-1H-pyrido[2,3-b][1,4]oxazin-2(3H)-one]
3 | < 5.00 | < 5.00 | 5.00 to 6.00 |  | CN1C(=O)COc2nc(-c3ccc(C4(N)CCC4)cc3)c(CC3CC3)cc21 [Example 133, 6-(4-(1-aminocyclobutyl)phenyl)-7-(cyclopropylmethyl)-1-methyl-1H-pyrido[2,3-b][1,4]oxazin-2(3H)-one]
4 | 5.00 to 6.00 | < 5.00 | 6.00 to 7.00 |  | CN1C(=O)COc2nc(-c3ccc([C@]4(N)C[C@@](C)(O)C4)cc3)c(-c3ccccc3)cc21 [Example 134, 6-(4((1s,3s)-1-amino-3-hydroxy-3-methylcyclobutyl)phenyl)-1-methyl-7-phenyl-1H-pyrido[2,3-b][1,4]oxazin-2(3H)-one]
5 | ≥ 7.00 | 5.00 to 6.00 | 6.00 to 7.00 |  | N#CCN1C(=O)COc2nc(-c3ccc(CN)cc3)c(-c3ccccc3)cc21 [Example 135, 2-(6-(4-(aminomethyl)phenyl)-2-oxo-7-phenyl-2,3-dihydro-1H-pyrido[2,3-b][1,4]oxazin-1-yl)acetonitrile]
6 | 5.00 to 6.00 | 5.00 to 6.00 | 6.00 to 7.00 |  | CCc1nnc2n1-c1cc(-c3ccccc3)c(-c3ccc([C@]4(N)C[C@@H](O)C4)cc3)nc1OC2 [Example 136, (1s,3s)-3-Amino-3-(4-(1-ethyl-8-phenyl-4H-pyrido[2,3-b][1,2,4]triazolo[4,3-d][1,4]oxazin-7-yl)phenyl)cyclobutanol]
7 | 6.00 to 7.00 | 5.00 to 6.00 | ≥ 7.00 |  | CN1C(=O)COc2nc(-c3ccc([C@]4(N)C[C@H](O)C4)cc3)c(-c3ccccc3)cc21 [Example 137, 6-(4-((1r,3r)-1-amino-3-hydroxycyclobutyl)phenyl)-1-methyl-7-phenyl-1H-pyrido[2,3-b][1,4]oxazin-2(3H)-one]
8 | 6.00 to 7.00 | 5.00 to 6.00 | ≥ 7.00 |  | CCc1nnc2n1-c1cc(-c3ccccc3)c(-c3ccc([C@]4(N)C[C@](C)(O)C4)cc3)nc1OC2 [Example 138, (1r,3r)-3-amino-3-(4-(1-ethyl-8-phenyl-4H-pyrido[2,3-b][1,2,4]triazolo[4,3-d][1,4]oxazin-7-yl)phenyl)-1-methylcyclobutanol]
9 | 6.00 to 7.00 | 5.00 to 6.00 | 6.00 to 7.00 |  | CCN1C(=O)COc2nc(-c3ccc([C@]4(N)C[C@@H](O)C4)cc3)c(-c3ccccc3)cc21 [Example 139, 6-(4-((1s,3s)-1-amino-3-hydroxycyclobutyl)phenyl)-1-ethyl-7-phenyl-1H-pyrido[2,3-b][1,4]oxazin-2(3H)-one]
10 | 6.00 to 7.00 | 5.00 to 6.00 | 6.00 to 7.00 |  | N[C@]1(c2ccc(-c3nc4c(cc3-c3ccccc3)N(CC3CC3)C(=O)CO4)cc2)C[C@H](O)C1 [Example 140, 6-(4-((1s,3s)-1-amino-3-hydroxycyclobutyl)phenyl)-1-(cyclopropylmethyl)-7-phenyl-1H-pyrido[2,3-b][1,4]oxazin-2(3H)-one]
11 | 6.00 to 7.00 | 6.00 to 7.00 | 6.00 to 7.00 |  | N[C@]1(c2ccc(-c3nc4c(cc3-c3ccccc3)-n3c(n[nH]c3=O)CO4)cc2)C[C@H](O)C1 [Example 141, 7-(4-((1s,3s)-1-amino-3-hydroxycyclobutyl)phenyl)-8-phenyl-2,4-dihydro-1H-pyrido[2,3-b][1,2,4]triazolo[4,3-d][1,4]oxazin-1-one]
12 | 5.00 to 6.00 | 5.00 to 6.00 | 5.00 to 6.00 |  | CCc1nnc2n1-c1cc(-c3ccccc3)c(-c3ccc(CN)cc3)nc1OC2 [Example 142, (4-(1-ethyl-8-phenyl-4H-pyrido[2,3-b][1,2,4]triazolo[4,3-d][1,4]oxazin-7-yl)phenyl)methanamine]
13 | ≥ 7.00 | 6.00 to 7.00 | ≥ 7.00 |  | CCN1C(=O)COc2nc(-c3ccc([C@]4(N)C[C@](C)(O)C4)cc3)c(-c3ccccc3)cc21 [Example 143, 6-(4-((1r,3r)-1-amino-3-hydroxy-3-methylcyclobutyl)phenyl)-1-ethyl-7-phenyl-1H-pyrido[2,3-b][1,4]oxazin-2(3H)-one]
14 | ≥ 7.00 | 6.00 to 7.00 | 6.00 to 7.00 |  | C[C@]1(O)C[C@@](N)(c2ccc(-c3nc4c(cc3-c3ccccc3)N(CC3CC3)C(=O)CO4)cc2)C1 [Example 144, 6-(4-((1r,3r)-1-amino-3-hydroxy-3-methylcyclobutyl)phenyl)-1-(cyclopropylmethyl)-7-phenyl-1H-pyrido[2,3-b][1,4]oxazin-2(3H)-one]
15 | ≥ 7.00 | 6.00 to 7.00 | ≥ 7.00 |  | C[C@]1(O)C[C@@](N)(c2ccc(-c3nc4c(cc3-c3ccccc3)N(CCF)C(=O)CO4)cc2)C1 [Example 145, 6-(4-((1r,3r)-1-amino-3-hydroxy-3-methylcyclobutyl)phenyl)-1-(2-fluoroethyl)-7-phenyl-1H-pyrido[2,3-b][1,4]oxazin-2(3H)-one]
16 | 6.00 to 7.00 | < 5.00 | 5.00 to 6.00 |  | NCc1ccc(-c2nc3c(cc2-c2ccccc2)N(CC(F)(F)F)C(=O)CO3)cc1 [Example 146, 6-(4-(Aminomethyl)phenyl)-7-phenyl-1-(2,2,2-trifluoroethyl)-1H-pyrido[2,3-b][1,4]oxazin-2(3H)-one]
17 | 6.00 to 7.00 | < 5.00 | 6.00 to 7.00 |  | N#CCN1C(=O)COc2nc(-c3ccc([C@]4(N)C[C@@H](O)C4)cc3)c(-c3ccccc3)cc21 [Example 147, 2-(6-(4-((1s,3s)-1-amino-3-hydroxycyclobutyl)phenyl)-2-oxo-7-phenyl-2,3-dihydro-1H-pyrido[2,3-b][1,4]oxazin-1-yl)acetonitrile]
18 | 6.00 to 7.00 | < 5.00 | 6.00 to 7.00 |  | N[C@]1(c2ccc(-c3nc4c(cc3-c3ccccc3)N(CC(F)(F)F)C(=O)CO4)cc2)C[C@H](O)C1 [Example 148, 6-(4-((1s,3s)-1-amino-3-hydroxycyclobutyl)phenyl)-7-phenyl-1-(2,2,2-trifluoroethyl)-1H-pyrido[2,3-b][1,4]oxazin-2(3H)-one]
19 | 5.00 to 6.00 | < 5.00 | 6.00 to 7.00 |  | CN1C(=O)COc2nc(-c3ccc(C4(N)CC4)cc3)c(-c3ccccc3)cc21 [Example 149, 6-(4-(1-aminocyclopropyl)phenyl)-1-methyl-7-phenyl-1H-pyrido[2,3-b][1,4]oxazin-2(3H)-one]
20 | ≥ 7.00 | 5.00 to 6.00 | ≥ 7.00 |  | C[C@]1(O)C[C@@](N)(c2ccc(-c3nc4c(cc3-c3ccccc3)N(CC#N)C(=O)CO4)cc2)C1 [Example 150, 2-(6-(4-((1r,3r)-1-amino-3-hydroxy-3-methylcyclobutyl)phenyl)-2-oxo-7-phenyl-2,3-dihydro-1H-pyrido[2,3-b][1,4]oxazin-1-yl)acetonitrile]
21 | 6.00 to 7.00 | < 5.00 | 5.00 to 6.00 |  | CCN1C(=O)COc2nc(-c3ccc(CN)cc3)c(-c3ccccc3)cc21 [Example 151, 6-(4-(Aminomethyl)phenyl)-1-ethyl-7-phenyl-1H-pyrido[2,3-b][1,4]oxazin-2(3H)-one]
22 | ≥ 7.00 | 5.00 to 6.00 | 6.00 to 7.00 |  | C[C@]1(O)C[C@@](N)(c2ccc(-c3nc4c(cc3-c3ccccc3)N(CC(F)(F)F)C(=O)CO4)cc2)C1 [Example 152, 6-(4-((1r,3r)-1-amino-3-hydroxy-3-methylcyclobutyl)phenyl)-7-phenyl-1-(2,2,2-trifluoroethyl)-1H-pyrido[2,3-b][1,4]oxazin-2(3H)-one]
23 | 5.00 to 6.00 | < 5.00 | 5.00 to 6.00 |  | NCc1ccc(-c2nc3c(cc2-c2ccccc2)N(CC2CC2)C(=O)CO3)cc1 [Example 153, 6-(4-(Aminomethyl)phenyl)-1-(cyclopropylmethyl)-7-phenyl-1H-pyrido[2,3-b][1,4]oxazin-2(3H)-one]
